The results in this text go back to US20150216898A1, “COMPOSITION FOR TREATING PSORIASIS” (PSORIASIS+CREAMS SWEDEN AB, priority 2012, published 2015).

For this experiment, the system named is subjects suffering from psoriasis. In words: Previous treatment(s) of the subjects (anamnesis). It counts as in vivo, human. Particulars: Subject 4; previous treatment supplemented with moisturisers and emollients; responded well at first, more frequent relapses later. From the text:
The subject had been diagnosed with psoriasis for nearly 25 years ago and had previously used combinations of local corticosteroids and emollient and moisturizing creams. Further, the subject had also tried photo therapy as well as a topical tar based product (Skillingarydsalvan Original). […] Further, the subject experienced side-effects (e g skin damage, such as skin thinning, changes in pigmentation, easy bruising, stretch marks, redness and dilated surface blood vessels) typically seen with treatment with corticosteroids.
Previous treatment(s): The subject had used corticosteroids such as mometasone furoate, prednicarbate and most recently calcitriol, always supplementing the treatment with moisturisers and emollients.
For the compound `C=C1/C(=C\C=C2/CCC[C@]3(C)[C@@H]([C@H](C)CCCC(C)(C)O)CC[C@@H]23)C[C@@H](O)C[C@@H]1O` [calcitriol], the “effect of previous treatment over time” value is reported as “no longer as effective”.

As for `C[C@@H]1C[C@H]2[C@@H]3CCC4=CC(=O)C=C[C@]4(C)[C@@]3(Cl)[C@@H](O)C[C@]2(C)[C@@]1(OC(=O)c1ccco1)C(=O)CCl` [mometasone furoate], the “effect of previous treatment over time” value is on record as “no longer as effective”. As for `CCOC(=O)O[C@]1(C(=O)COC(=O)CC)CC[C@H]2[C@@H]3CCC4=CC(=O)C=C[C@]4(C)[C@H]3[C@@H](O)C[C@@]21C` [prednicarbate], the “effect of previous treatment over time” value is “no longer as effective”.
